Source: US20170128435A1, “TREATMENT OF MULTIPLE SCLEROSIS WITH LAQUINIMOD” (Teva Pharmaceutical Industries, Ltd., priority 2009, published 2017)
Where two headings read alike, the source gives them in different places.

Tests used:
[1] = (Polman, 2005; Sandberg-Wollheim, 2005); cited from earlier work
[2] = system: relapsing MS; details: cited from earlier work
[3] = system: subjects with relapsing remitting multiple sclerosis (RRMS); experiment: Phase III clinical trial ALLEGRO: daily oral laquinimod 0.6 mg vs placebo; assay type: in vivo, human; details: daily oral 0.6 mg, RRMS patients
Protocol: A multinational, multicenter (approximately 175 centers), randomized, double-blinded, parallel-group, placebo-controlled clinical trial (“ALLEGRO”) is conducted to evaluate the safety, tolerability and efficacy of daily oral administration of laquinimod 0.6 mg in subjects with relapsing remitting multiple sclerosis (RRMS). A multinational, multicenter, randomized, double-blind, parallel-group, placebo-controlled study, to evaluate the safety, tolerability and efficacy of daily oral administration of laquinimod 0.6 mg in subjects with relapsing remitting multiple sclerosis (RRMS). Double blind treatment phase: 24 months of once-daily oral administration of daily dose of 0.6 mg laquinimod or matching placebo Eligible subjects are equally randomized into one of the following treatment arms: • 1. Laquinimod capsules 0.6 mg. The 0.6 mg laquinimod is administered as laquinimod capsules which contains 0.6 mg of Laquinimod Acid per capsule with meglumine. • 2. Matching placebo capsules. Subjects are evaluated at study sites for 12 scheduled visits of the double blind phase at months: −1 (screening), 0 (baseline), 1, 2, 3, 6, 9, 12, 15, 18, 21 and 24 (termination/early discontinuation). In case of the 6 months extended study, subjects are evaluated at study sites at months 27 and 30 (termination/early discontinuation of extended study), in this case month 24 is a regular scheduled visit. The following assessments are performed at specified time points: • 1. Vital signs are measured at each study visit. • 2. A physical examination is performed at months −1 (screening), 0 (baseline) 1, 3, 6, 12, 18 and 24 (termination/early discontinuation core study). In case of the 6 months extended study, additional examination is performed at month 30 (termination/early discontinuation of extended study). • 3. The following safety clinical laboratory tests are performed: • a. Complete blood count (CBC) with differential—at all scheduled visits. A reticulocyte count is added to the CBC at months 0 (baseline) and 24/30 (termination/early discontinuation). • b. Serum chemistry (including electrolytes, liver enzymes, direct and total bilirubin and pancreatic amylase and CPK), and urinalysis—at all scheduled visits. • c. A rapid urine β-hCG test is performed in women of child-bearing potential at baseline (month 0) and at each scheduled study visit thereafter (at site). • d. β-hCG in women of child-bearing potential is performed at all scheduled visits. • e. Starting after visit Month 3 a rapid urine β-hCG test is performed in women of child-bearing potential every 28 (±2) days. The subject is contacted by telephone within 72 hours after the test is scheduled to be performed and asked specific questions regarding the test. In case of suspected pregnancy (positive urine β-hCG test result), the caller makes sure that the study drug has been discontinued and the subject is instructed to arrive at the site as soon as possible with all study drugs. • 4. Markers of inflammation (serum conventional C-reactive protein and fibrinogen)—at screening, baseline and all scheduled visits thereafter. • 5. During the first 3 months periodical phone calls are placed by the site personnel every two weeks. […] ECG is performed at months −1 (screening; additional recording, up to 30 minutes apart is performed if QTc is […] 450 msec), (baseline; three recordings, 15 minutes apart), 1, 2, 3, 6, 12, 18 and 24 (termination/early discontinuation). In case of the 6 months extended study, ECG is performed at month 30 (termination/early discontinuation of the extended study). • 7. Chest X-ray is performed at months −1 (screening), (if not performed within 7 months prior to the screening visit). • 8. Adverse Events (AEs) are monitored throughout the study. • 9. Concomitant medications are monitored throughout the study. • 10. […]

[4] = system: subjects with Relapsing-Remitting Multiple Sclerosis (RRMS); experiment: Phase III clinical trial BRAVO: laquinimod over placebo, with Interferon β-1a (Avonex®) reference arm; assay type: in vivo, human; details: daily oral 0.6 mg, RRMS patients
Protocol: A multinational, multicenter, randomized, parallel-group, clinical trial is performed in subjects with RRMS (“BRAVO”). BRAVO is conducted to assess the efficacy, safety and tolerability of laquinimod over placebo in a double-blinded design and of a reference arm of Interferon β-1a (Avonex®) in a rater-blinded design. A multinational, Multicenter, Randomized, Parallel-Group study performed in subjects with Relapsing-Remitting Multiple Sclerosis (RRMS) to assess the efficacy, safety and tolerability of laquinimod over placebo in a double-blind design and of a reference arm of Interferon β-1a (Avonex®)in a rater-blinded design. Treatment phase: 24 months of once-daily oral administration of laquinimod 0.6 mg, matching oral placebo or once-weekly intramuscular administration of Interferon β-1a (Avonex®) 30 mcg. Eligible subjects are randomized in a 1:1:1 ratio (oral laquinimod: oral placebo: Avonex®) and assigned to one of the following three treatment arms: • 1. Laquinimod 0.6 mg per os once daily (400 subjects). The 0.6 mg laquinimod is administered as laquinimod capsules which contains 0.6 mg of Laquinimod Acid per capsule with meglumine. • 2. Matching placebo (for laquinimod) per os once daily (400 subjects). • 3. Interferon β-1a (Avonex®) 30 mcg intramuscular injection once weekly (400 subjects). Subjects on oral treatment are managed in a double-blind manner. Subjects assigned to injectable treatment with Avonex® and their Treating Neurologist/Physician are unblinded to the treatment assignment, but assessed neurologically by an Examining Neurologist/Physician in a blinded manner (potential IM injection sites are covered). During the study, the following assessments are performed (regardless of the treatment assignment) at the specified time points: • 1. Vital signs are measured at each study visit. • 2. A physical examination is performed at months −1 (screening), 0 (baseline) 1, 3, 6, 12, 18 and 24 (termination/early discontinuation). • 3. The following safety clinical laboratory tests are performed: • a. Complete blood count (CBC) with differential—at all scheduled visits. A reticulocyte count is added to the CBC at months 0 (baseline) and 24 (termination/early discontinuation) as well as in occasions of significant decrease in hemoglobin. • b. Serum chemistry (including electrolytes, liver enzymes, direct and total bilirubin, CPK and pancreatic amylase), and urinalysis—at all scheduled visits. • c. Serum TSH, T3 and Free T4 are measured at months 0 (baseline), 6, 12, 18 and 24 (termination/early discontinuation). • d. […] Markers of inflammation (serum conventional C-reactive protein and fibrinogen) are measured at all scheduled visits. • 5. […]

[5] = system: Relapsing-Remitting Multiple Sclerosis; details: 0.3 mg/day oral dose (Comi, 2007); cited from earlier work

Row | Compound | oral bioavailability [1] | development of active MRI lesions ([2]; 0.3 mg/day oral dose, relapsing MS (RRMS and SPMS) (Polman, 2005)) | development of active MRI lesions ([2]; relapsing MS, dose not stated (Polman, 2005)) | MRI-monitored disease activity: cumulative number of enhancing lesions on T1-weighted images [3] | MRI-monitored disease activity: cumulative number of new T2 lesions [3] | MRI-monitored disease activity: cumulative number of new hypointense lesions on T1-scans [3] | accumulation of physical disability, as measured by the time to confirmed progression of EDSS [3] | relapse rate ([3]; double blind study period) | number of confirmed relapses during the double blind study period ([3]; vs placebo) | accumulation of physical disability, as measured by the MSFC score at the end of the treatment period [4] | accumulation of physical disability, as measured by time to confirmed progression of EDSS [4] | brain atrophy, as measured by percent brain volume change from baseline to the end of the treatment period [4] | number of confirmed relapses (directly related to the relapse rate) ([4]; treatment period) | MRI and clinical effect as compared to placebo [5]
1 | CCN(C(=O)c1c(O)c2c(Cl)cccc2n(C)c1=O)c1ccccc1 [Laquinimod sodium] | high | – | – | – | – | – | – | – | – | – | – | – | – | –
2 | CCN(C(=O)c1c(O)c2c(Cl)cccc2n(C)c1=O)c1ccccc1 [laquinimod] | – | reduce | reduce | reduces | reduces | reduces | reduces | reduces | reduces | reduces | reduces | reduces | reduces | neither MRI nor clinical effect
